Measured values taken from patent publication US6479435B1, “Diaryl ethers and processes for their preparation and herbicidal and desiccant compositions containing them” (ISK Americas Incorporated, priority 1997, dated 2002).

Legend:
Assay type in all cases: in vivo
[1] = test system: velvetleaf (Abutilon theophrasti, ABUTH); assay: Post-emerge greenhouse herbicide test, phytotoxicity rating; conditions: 14 days after application, scale 0-100
Procedure, shortened: (§1)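 Scores use a 0 (no damage) to 100 (complete kill) scale, taken 14 days after a foliar spray. Acetone solutions with 0.25% v/v non-ionic surfactant were applied by track sprayer at 187 l/ha and 63-1000 g ai/ha to bottom-watered 2-3 leaf plants.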

[2] = test system: sicklepod (Cassia obtusifolia, CASOB); assay: as above; conditions: 14 days after application, scale 0-100
Procedure, shortened: as §1

[3] = test system: barnyardgrass (Echinochloa crusgalli, ECHCG); assay: as above; conditions: 14 days after application, scale 0-100
Procedure, shortened: as §1

[4] = test system: large crabgrass (Digitaria sanguinalis, DIGSA); assay: as above; conditions: 14 days after application, scale 0-100
Procedure, shortened: as §1

[5] = test system: green foxtail (Setaria viridis, SETVI); assay: as above; conditions: 14 days after application, scale 0-100
Procedure, shortened: as §1

[6] = test system: redroot pigweed (Amaranthus retroflexus, AMARE); assay: as above; conditions: 14 days after application, scale 0-100
Procedure, shortened: as §1

[7] = test system: ivyleaf morningglory (Ipomoea hederacea, IPOHE); assay: as above; conditions: 14 days after application, scale 0-100
Procedure, shortened: as §1

[8] = test system: Johnsongrass (Sorghum halepense, SORHA); assay: as above; conditions: 14 days after application, scale 0-100
Procedure, shortened: as §1

[9] = test system: lambsquarters (Chenopodium album, CHEAL); assay: as above; conditions: 14 days after application, scale 0-100
Procedure, shortened: as §1

[10] = test system: velvetleaf (Abutilon theophrasti, ABUTH); assay: Pre-emerge greenhouse herbicide test, phytotoxicity rating; conditions: 14 days after application, rating scale 0-100
Procedure, shortened: (§2)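 Visual 0–100 injury rating (100 = all plants dead) taken 14 days after treatment. Rates of 125–1000 g ai/ha in acetone, 187 l/ha, were sprayed onto soil one day post-sowing; pots were surface-watered to incorporate, then bottom-watered.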

[11] = test system: sicklepod (Cassia obtusifolia, CASOB); assay: as above; conditions: 14 days after application, rating scale 0-100
Procedure, shortened: as §2

[12] = test system: common ragweed (Ambrosia artemisiifolia L., AMBEL); assay: as above; conditions: 14 days after application, rating scale 0-100
Procedure, shortened: as §2

[13] = test system: barnyardgrass (Echinochloa crusgalli, ECHCG); assay: as above; conditions: 14 days after application, rating scale 0-100
Procedure, shortened: as §2

[14] = test system: large crabgrass (Digitaria sanguinalis, DIGSA); assay: as above; conditions: 14 days after application, rating scale 0-100
Procedure, shortened: as §2

[15] = test system: green foxtail (Setaria viridis, SETVI); assay: as above; conditions: 14 days after application, rating scale 0-100
Procedure, shortened: as §2

[16] = test system: redroot pigweed (Amaranthus retroflexus, AMARE); assay: as above; conditions: 14 days after application, rating scale 0-100
Procedure, shortened: as §2

[17] = test system: ivyleaf morningglory (Ipomoea hederacea, IPOHE); assay: as above; conditions: 14 days after application, rating scale 0-100
Procedure, shortened: as §2

[18] = test system: Johnsongrass (Sorghum halepense, SORHA); assay: as above; conditions: 14 days after application, rating scale 0-100
Procedure, shortened: as §2

[19] = test system: lambsquarters (Chenopodium album, CHEAL); assay: as above; conditions: 14 days after application, rating scale 0-100
Procedure, shortened: as §2

[20] = test system: field corn (Zea mays L., var. Dekalb 535, CORN); assay: Pre-emerge greenhouse test, crop damage rating; conditions: 14 days after application, rating scale 0-100
Procedure, shortened: as §2

[21] = test system: upland rice (Oryza sp., var.Tebonnet, RICE); assay: Pre-emerge greenhouse test, crop damage rating; conditions: 14 days after application, rating scale 0-100
Procedure, shortened: as §2

[22] = test system: soybean (Glycine max L., var. Pella 86, SOY); assay: Post-emerge greenhouse test, crop damage rating; set-up: key to crop damage rating SOY: 0-100 scale: 0 = no damage, 100 = complete death of all plants; conditions: 14 days after application, scale 0-100
Procedure, shortened: as §1

[23] = test system: soybean (Glycine max L., var. Pella 86, SOY); assay: Pre-emerge greenhouse test, crop damage rating; set-up: key to SOY crop damage rating: 0 = no damage, 100 = complete death of all plants; conditions: 14 days after application, rating scale 0-100
Procedure, shortened: as §2

[24] = test system: field corn (Zea mays L., var. Dekalb 535, CORN); assay: Post-emerge greenhouse test, crop damage rating; conditions: 14 days after application, scale 0-100
Procedure, shortened: as §1

[25] = test system: upland rice (Oryza sp., var.Tebonnet, RICE); assay: Post-emerge greenhouse test, crop damage rating; conditions: 14 days after application, scale 0-100
Procedure, shortened: as §1

[26] = test system: common ragweed (Ambrosia artemisiifolia L., AMBEL); assay: Post-emerge greenhouse herbicide test, phytotoxicity rating; conditions: 14 days after application, scale 0-100
Procedure, shortened: as §1

O=c1n(-c2cc(Oc3ccc([N+](=O)[O-])cn3)c(Cl)cc2F)c(=S)n2n1CCCC2 [Compound 8-23]
phytotoxicity rating ABUTH ([1]; rate 63 g ai/ha): 100
phytotoxicity rating ABUTH ([1]; rate 500 g ai/ha): 100
phytotoxicity rating CASOB ([2]; rate 63 g ai/ha): 70
phytotoxicity rating CASOB ([2]; rate 500 g ai/ha): 100
phytotoxicity rating ECHCG ([3]; rate 63 g ai/ha): 0
phytotoxicity rating ECHCG ([3]; rate 500 g ai/ha): 0
phytotoxicity rating DIGSA ([4]; rate 63 g ai/ha): 0
phytotoxicity rating DIGSA ([4]; rate 500 g ai/ha): 0
phytotoxicity rating SETVI ([5]; rate 63 g ai/ha): 0
phytotoxicity rating SETVI ([5]; rate 500 g ai/ha): 20
phytotoxicity rating AMARE ([6]; rate 63 g ai/ha): 95
phytotoxicity rating AMARE ([6]; rate 500 g ai/ha): 99
phytotoxicity rating IPOHE ([7]; rate 63 g ai/ha): 50
phytotoxicity rating IPOHE ([7]; rate 500 g ai/ha): 100
phytotoxicity rating SORHA ([8]; rate 63 g ai/ha): 0
phytotoxicity rating SORHA ([8]; rate 500 g ai/ha): 20
phytotoxicity rating CHEAL ([9]; rate 63 g ai/ha): 95
phytotoxicity rating CHEAL ([9]; rate 500 g ai/ha): 99
ABUTH phytotoxicity rating ([10]; Rate 125 g al/ha): 95
ABUTH phytotoxicity rating ([10]; Rate 500 g al/ha): 100
CASOB phytotoxicity rating ([11]; Rate 125 g al/ha): 0
CASOB phytotoxicity rating ([11]; Rate 500 g al/ha): 50
AMBEL phytotoxicity rating ([12]; Rate 125 g al/ha): 0
AMBEL phytotoxicity rating ([12]; Rate 500 g al/ha): 60
ECHCG phytotoxicity rating ([13]; Rate 125 g al/ha): 0
ECHCG phytotoxicity rating ([13]; Rate 500 g al/ha): 10
DIGSA phytotoxicity rating ([14]; Rate 125 g al/ha): 0
DIGSA phytotoxicity rating ([14]; Rate 500 g al/ha): 50
SETVI phytotoxicity rating ([15]; Rate 125 g al/ha): 10
SETVI phytotoxicity rating ([15]; Rate 500 g al/ha): 100
AMARE phytotoxicity rating ([16]; Rate 125 g al/ha): 90
AMARE phytotoxicity rating ([16]; Rate 500 g al/ha): 100
IPOHE phytotoxicity rating ([17]; Rate 125 g al/ha): 30
IPOHE phytotoxicity rating ([17]; Rate 500 g al/ha): 60
SORHA phytotoxicity rating ([18]; Rate 125 g al/ha): 0
SORHA phytotoxicity rating ([18]; Rate 500 g al/ha): 30
CHEAL phytotoxicity rating ([19]; Rate 125 g al/ha): 100
CHEAL phytotoxicity rating ([19]; Rate 500 g al/ha): 100
CORN crop damage rating ([20]; Rate 125 g al/ha): 0
CORN crop damage rating ([20]; Rate 500 g al/ha): 0
RICE crop damage rating ([21]; Rate 125 g al/ha): 0
RICE crop damage rating ([21]; Rate 500 g al/ha): 0
crop damage rating SOY ([22]; rate 63 g ai/ha): 25
crop damage rating SOY ([22]; rate 500 g ai/ha): 60
SOY crop damage rating ([23]; Rate 125 g al/ha): 0
SOY crop damage rating ([23]; Rate 500 g al/ha): 20
crop damage rating CORN ([24]; rate 63 g ai/ha): 0
crop damage rating CORN ([24]; rate 500 g ai/ha): 5
crop damage rating RICE ([25]; rate 63 g ai/ha): 0
crop damage rating RICE ([25]; rate 500 g ai/ha): 0
phytotoxicity rating AMBEL ([26]; rate 63 g ai/ha): 50
phytotoxicity rating AMBEL ([26]; rate 500 g ai/ha): 100
